Measured values from the NIST ThermoML archive (doi:10.1016/j.jct.2004.09.015).

Conditions: Liquid, Closed cell (Static) method

CC(=O)N(C)C [N,N-dimethylethanamide]
Conditions	vapor or sublimation pressure [kPa]
323.15 K	1.158
333.15 K	1.982
343.15 K	3.271
353.15 K	5.193
363.15 K	8
373.15 K	12
383.15 K	17.55
393.15 K	25.03
403.15 K	35.04
413.15 K	48.09
423.15 K	64.73
